Data on 21 compounds can be found in patent US5843958A, “Arylpyrazoles as leukotriene inhibitors” (Ortho Pharmaceutical Corporation, priority 1997, dated 1998).

One assay deals with 5-LO. Briefly: inhibition of 5-LO (5-HETE production) in intact RBL-1 cells (whole cell). The format is cell-based, Rat. Conditions: Table A. As to the method: (§1) The compounds of the invention were evaluated for their ability to inhibit the production of the arachidonic acid product 5-HETE in broken and whole cell models. Since this is the first step of leukotriene biosynthesis, a reduction in the production of 5-HETE is directly attributable to inhibition of 5-lipoxygenase, where the standard concentration is 3.0 μM. If the IC50 of the whole cell assay is smaller than the IC50 of the broken cell model, it is an indication that the compounds are inhibiting the cooperation of FLAP and 5-lipoxygenase.
The ability to inhibit 5-LO and CO in intact RBL-1 cells was also evaluated. RBL-1 cells were maintained in culture in minimal essential medium (Bio*Whittaker, Walkersville, Md.), containing 12.5% fetal calf serum, 10 mg/mL streptomycin, 10 I.U./mL penicillin G, […] gentamycin and 2 mM L-glutamine (Bio*Whittaker, Walkersville, Md.). Cells were collected by centrifugation, washed once in HBSS, and resuspended at a concentration of 1×10^5 cells/mL. Cells were incubated in the presence of vehicle or drug then centrifuged at 800×g for 10 minutes at 4° C. The supernatant was removed by aspiration and the cells were resuspended in 0.5 mL of HBSS. The reaction was started by the addition of 20 μg/mL of calcium ionophore A 23187 (mixed calcium and magnesium salts, Calbiochem, La Jolla Calif.) and allowed to proceed for 15 minutes, then stopped by plunging the tubes into a slush ice bath. The conversion of AA to 5-LO products was initiated by the addition of 10 μL (50 uCi) of 1-^14 C-AA. Products were isolated by acidification and extraction, followed by thin layer chromatography analysis as described above. Radioactive areas corresponding to authentic 5-LO (5-HETE) and CO (PGD2) products were quantitated by the Bioscan 2000 Imaging System and the IC50 was calculated as above.

Another assay deals with T1, 5-lipoxygenase (Rattus norvegicus, UniProt P12527).
T1 construct: The pellet was discarded and the supernatant was saved as the source of enzymes; endogenous in cells; host or cells: RBL-1 (rat basophilic leukemia) cells, homogenate supernatant
T1 sequence (P12527 1-673): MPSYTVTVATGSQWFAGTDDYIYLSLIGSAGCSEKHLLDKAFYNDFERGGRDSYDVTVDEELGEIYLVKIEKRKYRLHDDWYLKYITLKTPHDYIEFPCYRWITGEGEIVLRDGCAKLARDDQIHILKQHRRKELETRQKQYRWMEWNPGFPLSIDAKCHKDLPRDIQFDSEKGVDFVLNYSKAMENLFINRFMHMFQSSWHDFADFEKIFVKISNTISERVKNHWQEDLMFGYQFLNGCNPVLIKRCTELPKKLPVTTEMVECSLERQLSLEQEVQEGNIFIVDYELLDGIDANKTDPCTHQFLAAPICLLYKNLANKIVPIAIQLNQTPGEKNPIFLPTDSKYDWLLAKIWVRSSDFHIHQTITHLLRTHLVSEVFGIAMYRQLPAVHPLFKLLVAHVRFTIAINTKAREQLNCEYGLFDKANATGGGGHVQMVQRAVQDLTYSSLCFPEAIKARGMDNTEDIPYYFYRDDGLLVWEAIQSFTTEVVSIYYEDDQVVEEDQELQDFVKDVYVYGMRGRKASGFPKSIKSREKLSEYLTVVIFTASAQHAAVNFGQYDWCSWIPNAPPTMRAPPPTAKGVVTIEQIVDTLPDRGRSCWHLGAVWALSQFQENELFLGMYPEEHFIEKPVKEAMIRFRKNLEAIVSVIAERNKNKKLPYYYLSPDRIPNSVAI
Briefly: inhibition of 5-HETE production in broken RBL-1 cells (isolated enzyme). The assay is classed as biochemical. The conditions noted are these: Table A, broken RBL-1 cell supernatant; for inhibition at 3 µM: read-out: Isolated Enzyme % Inhib.; for inhibition at 3 µM / Isolated Enzyme % Inhib.: 3 μM. As to the method:
as §1
Rat basophilic leukemia cells (RBL-1; 5×10^7 viable cells/mL) were disrupted by homogenization on ice (four 20 sec bursts) with a Brinkman polytron. Complete cell breakage was verified microscopically. The homogenate was then centrifuged at 9,220×g for 48 minutes at 4° C. The pellet was discarded and the supernatant was saved as the source of enzymes. The supernatant was pre-incubated for five minutes at 37° C. in the presence of 2 mM of CaCl2 and compound or vehicle (1% DMSO). The conversion of AA into products by CO and LO was initiated by adding 10 μL (50 μCi) of 1-^14 C-AA to each tube and incubated at 37° C. for 20 minutes. The reaction was stopped by adjusting the pH of each sample to 3 to 3.5 with 2M formic acid. Samples were extracted with three volumes of chloroform to isolate the products of 5-LO formed during the reaction. Fractions were dried under nitrogen, then resuspended in 40 μL of chloroform and spotted onto silica gel HL plates. The plates were developed in A-9 solvent. The dried plates were analyzed using a Bioscan Imaging TLC scanner to determine the percentage of radiolabelled AA converted to 5-HETE (LO product) in each sample. The percentage of inhibition was calculated by:
[1-(5-HETE test)]/5-HETE control×100=% inhibition
The IC50 was determined using a curve fit in Cricket Graph (Computer Associated), which provided the equation of the regressed line used in the calculation.

Molecules are shown by their SMILES.

Usually IC50 stands for the concentration needed to halve the response being measured. Low values mean inhibition by little substance, high ones a need for much substance.

Consider `CN(O)C(=O)OCCc1cc(-c2ccc(Cl)cc2)n(-c2ccc(OCc3ccc4ccccc4n3)cc2)n1` [Cpd 5, 5-(4-Chlorophenyl)-3-[2-(N-hydroxy-N-methylcarbamoyloxy)]ethyl]-1-[4-(2-quinolyl)methoxyphenyl]pyrazole.0.05 Hydrate], for which, in the assay on 5-LO, 1100 nM corresponded to half-maximal inhibition (IC50). In addition, the inhibition at 3 µM at 5-lipoxygenase stood at 93%.

As to `CCOC(=O)CCc1cc(-c2ccc(Cl)cc2)n(-c2ccc(OCc3ccc4ccccc4n3)cc2)n1` [Cpd 12], in the assay on 5-LO, the IC50 worked out at 7400 nM. Also, the inhibition at 3 µM on 5-lipoxygenase worked out at 19%.

For `OCCc1cc(-c2ccc(Cl)cc2)n(-c2ccc(OCc3ccc4ccccc4n3)cc2)n1` [Cpd 3], it took 1300 nM to reach half-maximal inhibition with 5-LO (IC50). Besides, the inhibition at 3 µM at 5-lipoxygenase is 31%.

`CN(O)C(=O)CCc1cc(-c2ccc(Cl)cc2)n(-c2ccc(OCc3ccc4ccccc4n3)cc2)n1` [Cpd 22]: the IC50 in the assay with 5-LO stood at 1000 nM. For the same compound, the inhibition at 3 µM on 5-lipoxygenase was 100%.

In the assay on 5-LO, `COc1ccc(-n2nc(CCC(=O)N(C)O)cc2-c2ccc(OCc3ccc4ccccc4n3)cc2)cc1` [Cpd 16] registered an IC50 of 540 nM. Further, the inhibition at 3 µM on 5-lipoxygenase was found to be 87%.

Turning to `CC(C)COC(=O)CCc1cc(-c2ccc(Cl)cc2)n(-c2ccc(OCc3ccc4ccccc4n3)cc2)n1` [Cpd 10], half-maximal inhibition in the assay with 5-LO (IC50) required 1500 nM. Also, the inhibition at 3 µM on 5-lipoxygenase is 34%.

As for `CN(O)C(=O)CCc1cc(-c2ccc(OCc3ccc4ccccc4n3)cc2)n(-c2ccc(Cl)cc2)n1` [Cpd 21], the inhibition at 3 µM on 5-lipoxygenase is 15%.

For the compound `ON=CCCc1cc(-c2ccc(Cl)cc2)n(-c2ccc(OCc3ccc4ccccc4n3)cc2)n1` [Cpd 9, 5-(4-Chlorophenyl)-3-oximino 1-(4-(2-quinolyl)methoxy)phenyl)-pyrazol-3-yl]propanal.0.25 Hydrate], 550 nM corresponded to half-maximal inhibition in the assay on 5-LO (IC50). For the same compound, the inhibition at 3 µM at 5-lipoxygenase came to 44%.

For the compound `ClCCc1cc(-c2ccc(Cl)cc2)n(-c2ccc(OCc3ccc4ccccc4n3)cc2)n1` [Cpd 4, 3-(2-Chloroethyl)-5-(4-chlorophenyl)-1-[4-(2-quinolyl)methoxyphenyl]pyrazole], the IC50 in the assay on 5-LO worked out at 5300 nM. Moreover, the inhibition at 3 µM at 5-lipoxygenase was 55%.

As to `O=C(O)CCc1cc(-c2ccc(OCc3ccc4ccccc4n3)cc2)n(-c2ccc(Cl)cc2)n1` [Cpd 18], the inhibition at 3 µM at 5-lipoxygenase is 0%.

In the assay on 5-LO, `O=C(O)Cc1cc(-c2ccc(Cl)cc2)n(-c2ccc(OCc3ccc4ccccc4n3)cc2)n1` [Cpd 2, 2-[5-(4-Chlorophenyl)-1-(4-(2-quinolyl)methoxyphenyl)-pyrazol-3-yl]acetic acid] yielded an IC50 of 390 nM. Also, the inhibition at 3 µM on 5-lipoxygenase was 15%.

In turn, `Cc1cc(-c2ccc(Cl)cc2)n(-c2ccc(OCc3ccc4ccccc4n3)cc2)n1` [Cpd 11] had an IC50 with 5-LO of 6500 nM. In addition, the inhibition at 3 µM on 5-lipoxygenase amounted to 32%.

In the assay with 5-LO, `CN(O)C(=O)CCc1cc(-c2ccc(Cl)cc2)n(-c2ccc(OCc3ccc4ccccc4n3)cc2)n1` [Cpd 7, 3-{5-(4-Chlorophenyl)-N-hydroxy-N-methyl-1-[4-(2-quinolyl)methoxyphenyl]pyrazol-3-yl}propanamide] gave an IC50 of 490 nM. Further, at 5-lipoxygenase, the “Isolated Enzyme % Inhib.” value turned out to be 93% and the IC50 stood at 210 nM.

In the assay with 5-LO, `OCCCc1cc(-c2ccc(Cl)cc2)n(-c2ccc(OCc3ccc4ccccc4n3)cc2)n1` [Cpd 20] yielded an IC50 of 840 nM. The inhibition at 3 µM on 5-lipoxygenase was found to be 21%.

Turning to `O=C(O)CCc1cc(-c2ccc(Cl)cc2)n(-c2ccc(OCc3ccc4ccccc4n3)cc2)n1` [Cpd 15], half-maximal inhibition in the assay on 5-LO (IC50) was put at 5200 nM. Also, at 5-lipoxygenase, the inhibition at 3 µM worked out at 0%.

For `COc1ccc(-n2nc(CCC(=O)O)cc2-c2ccc(OCc3ccc4ccccc4n3)cc2)cc1` [Cpd 13], in the assay with 5-LO, the IC50 was found to be 3900 nM. For the same compound, the “Isolated Enzyme % Inhib.” value at 5-lipoxygenase came to 8%.

Regarding `COc1ccc(-n2nc(CCC(=O)O)cc2-c2ccc(OCc3ccc4ccccc4n3)cc2)cc1` [Cpd 14], the IC50 in the assay on 5-LO came out at 2000 nM. The “Isolated Enzyme % Inhib.” value at 5-lipoxygenase amounted to 24%.

For `CCOC(=O)Cc1cc(-c2ccc(Cl)cc2)n(-c2ccc(OCc3ccc4ccccc4n3)cc2)n1` [Cpd 1], in the assay with 5-LO, the IC50 is 13400 nM. Also, the inhibition at 3 µM at 5-lipoxygenase worked out at 29%.

Turning to `O=CCCc1cc(-c2ccc(Cl)cc2)n(-c2ccc(OCc3ccc4ccccc4n3)cc2)n1` [Cpd 8], the IC50 in the assay on 5-LO was 3200 nM. Besides, on 5-lipoxygenase, the inhibition at 3 µM stood at 49%.

Turning to `O=C(O)CCc1cc(-c2ccc(OCc3ccc4ccccc4n3)cc2)n(-c2ccccc2)n1` [Cpd 19], the inhibition at 3 µM on 5-lipoxygenase was 0%.

On to `COC(=O)CCc1cc(-c2ccc(OCc3ccc4ccccc4n3)cc2)n(-c2ccccc2)n1` [Cpd 17], for which, on 5-lipoxygenase, the inhibition at 3 µM worked out at 19%.
